Legend:
[1] = IRX4204 content in the brain by LC/MS/MS; format: in vivo; details: male, SD, oral, rat, 7 days repeated dosing 10 mg/kg/day gavage, one hour after the last dose
Protocol: Male SD rats underwent daily gavage with 10mg/kg/day for seven days. One hour after the last dose, rats were anesthetized with ketamine/xylazine and transcardially perfused with cold saline. Brains were isolated and homogenized with two volumes of phosphate buffer using ultrasonication. A 100μl sample of the homogenate was transferred to a 1.7ml centrifuge tube and mixed with 20μl of internal standard (100ng/ml of 13-cis retinoic acid-d5 in diluent). Then the sample was deproteinized with 300μl of acetonitrile, centrifuged, and the supernatant was transferred to an autosampler vial for analysis by LC/MS/MS. The calibration standards and the internal standard (13-cis retinoic acid-d5) were diluted in acetonitrile:butylatedhydroxyanisole:ethoxyquin:triethylamine (100:0.05:0.02:0.1, v/w/v/v).
The LC/MS system was comprised of Waters Acquity Ultra Performance Liquid Chromatography (UPLC) coupled to a XEVO-TQS (Waters). The samples were analyzed by reverse-phase HPLC using a Waters Atlantis T3 column (150 × 2.1mm, 5um). The mobile phase was nebulized using heated nitrogen in a Z-spray source/interface set to electrospray negative ionization mode. The ionized compounds were detected using MS/MS. […] The detection was linear between 2.5nM to 10nM.

RXRα = target: T1, RXRα (Homo sapiens, UniProt P19793); assay: Receptor transactivation assay, RXRα (CV-1 cells, rCRBPII/RXRE-tk-Luc reporter); format: cell-based; details: 20h
T1 sequence (P19793 1-462): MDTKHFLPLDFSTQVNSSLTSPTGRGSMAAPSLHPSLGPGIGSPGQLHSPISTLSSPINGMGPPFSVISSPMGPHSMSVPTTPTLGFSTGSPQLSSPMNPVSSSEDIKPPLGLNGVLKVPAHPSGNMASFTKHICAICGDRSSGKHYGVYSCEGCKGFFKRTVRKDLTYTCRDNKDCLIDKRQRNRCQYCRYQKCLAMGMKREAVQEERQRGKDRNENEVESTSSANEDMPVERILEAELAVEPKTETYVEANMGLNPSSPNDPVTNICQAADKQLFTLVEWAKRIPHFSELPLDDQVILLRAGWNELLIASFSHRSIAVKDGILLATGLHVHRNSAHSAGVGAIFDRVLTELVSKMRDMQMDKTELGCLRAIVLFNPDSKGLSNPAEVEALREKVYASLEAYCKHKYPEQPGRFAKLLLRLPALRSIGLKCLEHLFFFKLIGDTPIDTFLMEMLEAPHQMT
From the text: (§1) For RXR: CV-1 cells were transfected with rCRBPII/RXRE-tk-Luc reporter gene and an expression vector for RXRα, β, or γ. For RAR: CV-1 cells were transfected with ERE-tk-Luc reporter gene and an expression vector for the appropriate ER-RARα, β, or γ. ER-RARs are fusion proteins, composed of the estrogen receptor (ER) DNA binding domain fused to the ligand binding domain of RARs. This system eliminates interference by the low level of endogenous RAR activity in CV1 cells as the readout comes only from the transfected ER-RAR. For PPARγ: CV-1 cells were transfected with 3x(rAOX/DR1)-tk-Luc reporter gene and an expression vector for PPARγ; for FXR: CV-1 cells were transfected with 3x(IBABP/IR1)-tk-Luc reporter gene and vectors for FXR and RXRα; for LXR: CV-1 cells were transfected with 3x(PLTP/LXRE)-tk-Luc reporter gene with vectors for LXRα or LXRβ. For Nurr1: COS7 cells were transfected with 3xNBRE-tk-luc reporter gene and full length Nurr1 with or without full-length RXRα plasmid. […] Luciferase data were normalized to co-transfected β-gal activity. Luciferase activity is expressed as percent of maximal activity obtained using specific agonists 9-cis-retinoic acid (RXR), retinoic acid (RAR), rosiglitazone (PPARγ), GW4064 (FXR), T0901317 (LXR).

6-OHDA lesioned rats = assay: Cylinder test in 6-OHDA lesioned rat model of PD; format: in vivo; details: 10mg/kg/day gavage for three weeks, day 17 and day 24 post-lesion, p < 0.05
Protocol: All surgical procedures were performed under general anesthesia with ketamine/xylazine. 2μl 6-OHDA (20 mg/ml in 0.02% ascorbic acid) was stereotaxically injected into the right striatum of male SD rats. Lesion coordinates were set according to bregma and dura in mm: ML-3.7; AP-1.0; DV-5.5. The injection rate was 2μl/5 min and the injecting needle was left for 2 minutes after injection to avoid back flow. Apomorphine-induced rotations (see below) were assessed three days post-lesion and rats with ≥ 30 full contralateral rotation/30 minutes were included in the study.
Rats were randomly grouped into vehicle control group (n = 11) and drug treatment group (n = 10). […] The control group received DMSO/corn oil (vehicle). The treatment continued for three weeks.
The cylinder test was used to test for forelimb use asymmetry. Rats to be tested were placed individually in a glass cylinder (21 cm diameter, 34 cm height) and wall exploration was recorded for five minutes. Wall exploration was expressed in terms of the percentage of impaired (right) forelimb vs. total (right+left+both) usage. Paw placement test was performed before the lesion for baseline, three days post lesion and two weeks and three weeks following treatment.

LXRβ = LXRβ (Homo sapiens, UniProt P55055); assay: Receptor transactivation assay, LXRβ (CV-1 cells); format: cell-based; details: at physiological concentrations
Sequence of LXRβ (P55055 whole entry, one chain of several): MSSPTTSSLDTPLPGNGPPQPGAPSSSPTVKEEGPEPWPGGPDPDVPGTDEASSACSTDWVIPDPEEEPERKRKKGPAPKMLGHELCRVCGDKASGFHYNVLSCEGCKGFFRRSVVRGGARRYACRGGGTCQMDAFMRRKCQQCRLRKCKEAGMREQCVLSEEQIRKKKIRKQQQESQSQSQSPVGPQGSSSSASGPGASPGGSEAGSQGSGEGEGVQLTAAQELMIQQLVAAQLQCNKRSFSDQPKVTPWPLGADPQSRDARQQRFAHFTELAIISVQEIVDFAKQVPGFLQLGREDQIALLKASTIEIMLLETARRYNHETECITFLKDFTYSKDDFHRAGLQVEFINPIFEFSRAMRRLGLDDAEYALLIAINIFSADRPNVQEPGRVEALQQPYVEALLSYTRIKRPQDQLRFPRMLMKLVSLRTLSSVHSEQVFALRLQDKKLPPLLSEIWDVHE
From the text: (§2) For PPARγ: CV-1 cells were transfected with 3x(rAOX/DR1)-tk-Luc reporter gene and an expression vector for PPARγ; for FXR: CV-1 cells were transfected with 3x(IBABP/IR1)-tk-Luc reporter gene and vectors for FXR and RXRα; for LXR: CV-1 cells were transfected with 3x(PLTP/LXRE)-tk-Luc reporter gene with vectors for LXRα or LXRβ. […] Luciferase data were normalized to co-transfected β-gal activity. Luciferase activity is expressed as percent of maximal activity obtained using specific agonists 9-cis-retinoic acid (RXR), retinoic acid (RAR), rosiglitazone (PPARγ), GW4064 (FXR), T0901317 (LXR).

LXRα = LXRα (Homo sapiens, UniProt Q13133); assay: Receptor transactivation assay, LXRα (CV-1 cells); format: cell-based; details: at physiological concentrations
Sequence of LXRα (Q13133 whole entry, one chain of several): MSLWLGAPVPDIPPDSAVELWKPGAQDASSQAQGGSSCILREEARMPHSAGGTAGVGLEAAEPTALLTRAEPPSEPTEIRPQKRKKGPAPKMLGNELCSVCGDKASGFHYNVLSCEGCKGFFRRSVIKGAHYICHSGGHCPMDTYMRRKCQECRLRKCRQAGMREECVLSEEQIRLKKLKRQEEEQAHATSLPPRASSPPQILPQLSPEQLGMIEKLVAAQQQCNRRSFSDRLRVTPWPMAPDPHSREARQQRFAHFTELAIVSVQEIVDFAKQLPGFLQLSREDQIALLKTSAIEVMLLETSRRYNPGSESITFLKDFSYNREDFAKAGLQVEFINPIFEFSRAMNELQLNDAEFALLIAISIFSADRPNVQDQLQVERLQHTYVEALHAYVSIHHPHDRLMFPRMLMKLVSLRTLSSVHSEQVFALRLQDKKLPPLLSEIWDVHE
From the text: as §2

Nurr1 = target: T2, Nurr1 (Homo sapiens, UniProt P43354); assay: Nurr1 transactivation assay in COS7 cells without RXRα; format: cell-based; details: Nurr1 in the absence of RXRα
T2 construct: full length Nurr1 with or without full-length RXRα plasmid; expressed in transfected cells; host or cells: COS7
T2 sequence (P43354 whole entry, species assumed): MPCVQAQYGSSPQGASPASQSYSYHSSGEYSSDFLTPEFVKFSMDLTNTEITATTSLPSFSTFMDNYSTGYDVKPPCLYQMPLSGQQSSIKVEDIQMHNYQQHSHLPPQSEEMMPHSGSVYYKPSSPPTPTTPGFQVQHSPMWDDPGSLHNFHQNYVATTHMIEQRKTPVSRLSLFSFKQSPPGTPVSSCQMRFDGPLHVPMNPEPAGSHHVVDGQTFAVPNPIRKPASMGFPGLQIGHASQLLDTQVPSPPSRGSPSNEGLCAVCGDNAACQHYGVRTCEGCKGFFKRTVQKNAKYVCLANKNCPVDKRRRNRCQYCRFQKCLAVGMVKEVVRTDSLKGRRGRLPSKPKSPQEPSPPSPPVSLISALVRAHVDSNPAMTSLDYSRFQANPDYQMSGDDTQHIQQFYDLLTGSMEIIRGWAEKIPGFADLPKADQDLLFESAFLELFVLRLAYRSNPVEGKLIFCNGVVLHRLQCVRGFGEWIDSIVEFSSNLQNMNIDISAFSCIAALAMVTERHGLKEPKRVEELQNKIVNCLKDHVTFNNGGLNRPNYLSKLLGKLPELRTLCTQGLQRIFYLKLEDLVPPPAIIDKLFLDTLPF
From the text: as §1

[2] = target: T3, farnesoid X receptor (FXR) (Homo sapiens, UniProt Q96RI1); assay: Receptor transactivation assay, FXR (CV-1 cells, FXR and RXRα vectors); format: cell-based; details: at physiological concentrations
T3 sequence (Q96RI1 1-486): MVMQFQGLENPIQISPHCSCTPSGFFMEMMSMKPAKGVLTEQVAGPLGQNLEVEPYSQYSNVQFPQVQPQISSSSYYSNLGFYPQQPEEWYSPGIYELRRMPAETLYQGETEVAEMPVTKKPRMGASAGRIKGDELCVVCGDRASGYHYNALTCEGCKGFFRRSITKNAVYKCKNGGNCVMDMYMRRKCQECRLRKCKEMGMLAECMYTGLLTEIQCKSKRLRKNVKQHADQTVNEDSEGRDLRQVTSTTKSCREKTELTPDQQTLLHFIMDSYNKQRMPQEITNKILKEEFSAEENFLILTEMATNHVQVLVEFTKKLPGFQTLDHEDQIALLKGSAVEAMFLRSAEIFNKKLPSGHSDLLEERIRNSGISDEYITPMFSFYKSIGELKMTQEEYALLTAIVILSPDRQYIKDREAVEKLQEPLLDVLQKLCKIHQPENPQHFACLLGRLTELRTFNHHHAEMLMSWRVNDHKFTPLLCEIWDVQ
T3 sequence (P19793 1-462 partner): T1 sequence (P19793 1-462)
From the text: as §1

CC(/C=C/[C@@H]1C[C@]1(C)c1ccc2c(c1)C(C)(C)CCC2(C)C)=C\C(=O)O [IRX4204]
concentration at 1 h [1]: 11.5 ± 2.9 nM | concentration that fully activates RXRα (RXRα): 1 nM | concentration that partially activates RXRα (RXRα): 0.1 nM | spontaneous forelimb use in the cylinder test (6-OHDA lesioned rats): significantly improved spontaneous forelimb use to pre-lesion levels | activation of RXR heterodimer of LXRβ (LXRβ): does not activate | activation of RXR heterodimer of LXRα (LXRα): does not activate | reporter gene activation (Nurr1): base level of reporter gene activation | activation of RXR heterodimer of FXR [2]: does not activate
